Test results from the supplement of paper PMC10307832.

Legend:
Experiment in all cases: relative viability (nuclei count vs DMSO), 5 days (fraction); higher = more cells survive
Idelalisib + Linsitinib = compound: CC[C@H](Nc1ncnc2[nH]cnc12)c1nc2cccc(F)c2c(=O)n1-c1ccccc1 [Idelalisib] + C[C@]1(O)C[C@@H](c2nc(-c3ccc4ccc(-c5ccccc5)nc4c3)c3c(N)nccn32)C1 [Linsitinib] (partner 1 µM)
Procedure, shortened: (§1)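 The day after seeding in 1536-well plates, lung cancer cell lines were treated by pin tool with a single drug, or with a fixed anchor-drug dose together with five library-drug doses (not always all listed) in √10 steps. After 5 days, a combined fix-and-stain solution (final 0.05% Triton X-100, 1% formaldehyde, 1 ug/ml Hoechst) was added. Nuclei counted on 4× images gave relative viability as treated counts over vehicle counts, reported as the median of duplicate plates.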

Idelalisib + Bortezomib = compound: CC[C@H](Nc1ncnc2[nH]cnc12)c1nc2cccc(F)c2c(=O)n1-c1ccccc1 [Idelalisib] + CC(C)C[C@H](NC(=O)[C@H](Cc1ccccc1)NC(=O)c1cnccn1)B(O)O [Bortezomib] (partner 0.002 µM)
Procedure, shortened: as §1

Pemetrexed + Phenformin = compound: Nc1nc2[nH]cc(CCc3ccc(C(=O)N[C@@H](CCC(=O)O)C(=O)O)cc3)c2c(=O)[nH]1 [Pemetrexed] + N=C(N)NC(=N)NCCc1ccccc1 [Phenformin] (partner 250 µM)
Procedure, shortened: as §1

Pemetrexed + Navitoclax = compound: Nc1nc2[nH]cc(CCc3ccc(C(=O)N[C@@H](CCC(=O)O)C(=O)O)cc3)c2c(=O)[nH]1 [Pemetrexed] + CC1(C)CCC(c2ccc(Cl)cc2)=C(CN2CCN(c3ccc(C(=O)NS(=O)(=O)c4ccc(N[C@H](CCN5CCOCC5)CSc5ccccc5)c(S(=O)(=O)C(F)(F)F)c4)cc3)CC2)C1 [Navitoclax] (partner 0.5 µM)
Procedure, shortened: as §1

Cell Line | relative viability (Idelalisib + Linsitinib; first compound 0.04 µM) | relative viability (Idelalisib + Linsitinib; first compound 0.1265 µM) | relative viability (Idelalisib + Linsitinib; first compound 0.4 µM) | relative viability (Idelalisib + Linsitinib; first compound 1.265 µM) | relative viability (Idelalisib + Linsitinib; first compound 4 µM) | relative viability (Idelalisib + Bortezomib; first compound 0.04 µM) | relative viability (Idelalisib + Bortezomib; first compound 0.1265 µM) | relative viability (Idelalisib + Bortezomib; first compound 0.4 µM) | relative viability (Idelalisib + Bortezomib; first compound 1.265 µM) | relative viability (Idelalisib + Bortezomib; first compound 4 µM) | relative viability (Pemetrexed + Phenformin; first compound 0.002 µM) | relative viability (Pemetrexed + Phenformin; first compound 0.006325 µM) | relative viability (Pemetrexed + Phenformin; first compound 0.02 µM) | relative viability (Pemetrexed + Phenformin; first compound 0.06325 µM) | relative viability (Pemetrexed + Phenformin; first compound 0.2 µM) | relative viability (Pemetrexed + Navitoclax; first compound 0.002 µM) | relative viability (Pemetrexed + Navitoclax; first compound 0.006325 µM) | relative viability (Pemetrexed + Navitoclax; first compound 0.02 µM) | relative viability (Pemetrexed + Navitoclax; first compound 0.06325 µM) | relative viability (Pemetrexed + Navitoclax; first compound 0.2 µM)
NCI-H2405 | 1.08 | 0.851 | 0.733 | 0.736 | 0.69 | 1.05 | 0.98 | 0.937 | 0.983 | 0.962 | 0.37 | 0.362 | 0.423 | 0.432 | 0.392 | 1.13 | 0.882 | 0.907 | 0.778 | 0.776
NCI-H3122 | 0.953 | 0.952 | 1.03 | 0.935 | 0.894 | 1.03 | 1.04 | 1.09 | 1.09 | 1.04 | 0.419 | 0.37 | 0.374 | 0.336 | 0.205 | 0.981 | 1.06 | 1.03 | 1.01 | 0.826
PC-3 [JPC-3] | 0.972 | 0.976 | 0.986 | 0.95 | 0.893 | 0.885 | 0.837 | 0.835 | 0.806 | 0.809 | 0.476 | 0.517 | 0.537 | 0.486 | 0.478 | 0.726 | 0.762 | 0.796 | 0.89 | 0.749
PC-14 | 0.971 | 0.978 | 0.929 | 0.97 | 0.901 | 0.913 | 0.996 | 0.947 | 0.982 | 0.814 | 0.452 | 0.582 | 0.901 | 0.445 | 0.27 | 0.976 | 0.976 | 1.05 | 0.428 | 0.129
RERF-LC-KJ | 0.973 | 0.863 | 0.869 | 0.789 | 0.908 | 1.2 | 1.08 | 0.95 | 1.13 | 0.878 | 0.435 | 0.439 | 0.43 | 0.411 | 0.349 | 0.952 | 0.722 | 1.31 | 1.13 | 0.741
SK-LU-1 | 1.17 | 1.15 | 0.916 | 1.02 | 0.973 | 1.06 | 1.14 | 0.961 | 0.95 | 1.04 | 0.497 | 0.497 | 0.626 | 0.547 | 0.534 | 0.881 | 0.813 | 0.791 | 0.901 | 0.817
SW 1573 | 0.781 | 0.792 | 0.728 | 0.625 | 0.558 | 1.06 | 0.972 | 1.02 | 0.928 | 0.865 | 0.401 | 0.348 | 0.447 | 0.353 | 0.388 | 1.11 | 0.927 | 0.987 | 0.889 | 0.902
